Test results: patent EP0233461B2, “4,5,6-Substituted-2-pyrimidinamines” (AMERICAN CYANAMID COMPANY, priority 1986, dated 1987)
pIC50: −log10 of the molar value. Structures can show the parent of a compound that is named as a salt.

tested on: human basophils; assay: Inhibition of histamine release from immunologically stimulated human basophils; format: cell-based; details: Homo sapiens, concentration causing 50% inhibition of histamine release, by linear regression; active if IC50 ≦ 48 µM; read-out: IC50
Outline: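 Leukocytes from sedimented human blood, washed in Tris-A and resuspended in Tris-ACM, were challenged with anti-IgE or antigen, with or without compound, for 60 min at 37 °C. Released histamine was measured fluorometrically after OPT derivatization and expressed as percent of total (perchloric acid lysate), corrected for spontaneous release.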

Row | pIC50 | SMILES
1 | 5.68 | CC(=O)Nc1cccc(Nc2nccc(-c3ccncc3)n2)c1 [N-[3-[[4-(4-Pyridinyl)-2-pyrimidinyl]amino]-phenyl]acetamide]
2 | 5.34 | CC(C)(C)c1ccc(Nc2nccc(-c3cccs3)n2)cc1 [N-[4-(1,1-Dimethylethyl)phenyl]-4-(2-thienyl)-2-pyrimidinamine]
3 | 6.15 | CC(C)(C)c1ccc(Nc2nccc(-c3cccnc3)n2)cc1 [N-[4-(1,1-Dimethylethyl)phenyl]-4-(3-pyridinyl)-2-pyrimidinamine]
4 | 5.96 | CC(C)c1ccc(Nc2nccc(-c3cccnc3)n2)cc1 [N-[4-(1-Methylethyl)phenyl]-4-(3-pyridinyl)-2-pyrimidinamine]
5 | 5.80 | FC(F)(F)c1cc(Nc2nccc(-c3ccccn3)n2)ccc1-n1ccnc1 [N-[4-(1H-Imidazol-1-yl)-3-(tri-fluoromethyl)phenyl]-4-(2-pyridin-yl)-2-pyrimidinamine]
6 | 6.40 | FC(F)(F)c1cc(Nc2nccc(-c3ccncc3)n2)ccc1-n1ccnc1 [N-[4-(1H-Imidazol-1-yl)-3-(trifluoromethyl)-phenyl]-4-(4-pyridinyl)-2-pyrimidinamine]
7 | 5.74 | c1ccc(-c2ccnc(Nc3ccc(-n4ccnc4)cc3)n2)nc1 [N-[4-(1H-Imidazol-1-yl)phenyl]-4-(2-pyridinyl)-2-pyrimidinamine]
8 | 5.89 | c1cncc(-c2ccnc(Nc3ccc(-n4ccnc4)cc3)n2)c1 [N-[4-(1H-Imidazol-1-yl)phenyl]-4-(3-pyridinyl)-2-pyrimidinamine]
9 | 4.91 | c1cc(-c2ccnc(Nc3ccc(-n4ccnc4)cc3)n2)ccn1 [N-[4-(1H-Imidazol-1-yl)phenyl]-4-(4-pyridinyl)-2-pyrimidinamine]
10 | 6.10 | C=CCOc1ccc(Nc2nccc(-c3cccnc3)n2)cc1 [N-[4-(2-Propenyloxy)phenyl]-4-(3-pyridinyl)-2-pyrimidinamine]
11 | 6.70 | Nc1cccc(Nc2nccc(-c3ccccn3)n2)c1 [N-[4-(2-Pyridinyl)-2-pyrimidinyl]-1,3-benzenediamine]
12 | 6.00 | Nc1ccc(Nc2nccc(-c3ccccn3)n2)cc1 [N-[4-(2-Pyridinyl)-2-pyrimidinyl]-1,4-benzenediamine, dihydrochloride]
13 | 6.40 | Nc1cccc(Nc2nccc(-c3cccnc3)n2)c1 [N-[4-(3-Pyridinyl)-2-pyrimidinyl]-1,3-benzenediamine, dihydrochloride]
14 | > 4.62 | CN1CCN(c2ccc(Nc3nccc(-c4ccccn4)n3)cc2)CC1 [N-[4-(4-Methyl-1-piperazinyl)phenyl]-4-(2-pyridinyl)-2-pyrimidinamine]
15 | > 4.62 | CN1CCN(c2ccc(Nc3nccc(-c4cccs4)n3)cc2)CC1 [N-[4-(4-Methyl-1-piperazinyl)phenyl]-4-(2-thienyl)-2-pyrimidinamine]
16 | 5.82 | CN1CCN(c2ccc(Nc3nccc(-c4cccnc4)n3)cc2)CC1 [N-[4-(4-Methyl-1-piperazinyl)phenyl]-4-(3-pyridinyl)-2-pyrimidinamine]
17 | 6.22 | CN1CCN(c2ccc(Nc3nccc(-c4ccncc4)n3)cc2)CC1 [N-[4-(4-Methyl-1-piperazinyl)phenyl]-4-(4-pyridinyl)-2-pyrimidinamine]
18 | 6.00 | Nc1cccc(Nc2nccc(-c3ccncc3)n2)c1 [N-[4-(4-Pyridinyl)-2-pyrimidinyl]-1,3-benzenediamine]
19 | 5.52 | Nc1ccc(Nc2nccc(-c3ccncc3)n2)cc1 [N-[4-(4-Pyridinyl)-2-pyrimidinyl]-1,4-benzenediamine, hydrochloride]

Row | pIC50 | SMILES
20 | 6.10 | CC(N)c1ccc(Nc2nccc(-c3cccnc3)n2)cc1 (centres unmarked) [N-[4-[1-Aminoethyl)phenyl]-4-(3-pyridinyl)-2-pyrimidinamine, trihydrochloride]
21 | 6.70 | CCN(CC)CCOc1ccc(Nc2nccc(-c3ccncc3)n2)cc1 [N-[4-[2-(Diethylamino)ethoxy]phenyl]-4-(4-pyridinyl)-2-pyrimidinamine]
22 | 6.30 | CN(C)CCOc1ccc(Nc2nccc(-c3cccnc3)n2)cc1 [N-[4-[2-(Dimethylamino)ethoxy]phenyl]-4-(3-pyridinyl)-2-pyrimidinamine]
23 | 5.82 | CN(C)CCOc1ccc(Nc2nccc(-c3ccncc3)n2)cc1 [N-[4-[2-(Dimethylamino)ethoxy]phenyl]-4-(4-pyridinyl)-2-pyrimidinamine]
24 | 5.04 | CN(C)CCOc1ccc(N(CCN(C)C)c2nccc(-c3ccncc3)n2)cc1 [N-[4-[2-(Dimethylamino)ethoxy]phenyl]-N',N'-dimethyl-N-[4-(4-pyridinyl)-2-pyrimidinyl]-1,2-ethanediamine]
25 | 6.70 | CCN(CC)CCOc1ccc(Nc2nccc(-c3cccnc3)n2)cc1 [N-[4-[2-Diethylamino)ethaxy]phenyl]-4-(3-pyridinyl)-2-pyrimidinamine]
26 | 5.34 | CC(C)N(CCOc1ccc(Nc2nccc(-c3cccnc3)n2)cc1)C(C)C [N-[4-[2-[bis(1-Methylethyl)amino]ethoxy]phenyl]-4-(3-pyridinyl)-2-pyrimidinamine]
27 | 6.30 | CN(C)CCCOc1ccc(Nc2nccc(-c3cccnc3)n2)cc1 [N-[4-[3-(Dimethylamino)propoxy]phenyl]-4-(3-pyridinyl)-2-pyrimidinamine]
28 | 5.89 | CN(C)CCCOc1ccc(Nc2nccc(-c3ccncc3)n2)cc1 [N-[4-[3-(Dimethylamino)propoxy]phenyl]-4-(4-pyridinyl)-2-pyrimidinamine]
29 | 6.15 | CC(=O)Nc1ccc(Nc2nccc(-c3ccco3)n2)cc1 [N-[4-[[4-(2-Furanyl)-2-pyrimidin-yl]amino]phenyl]acetamide]
30 | 5.82 | CC(=O)Nc1ccc(Nc2nccc(-c3ccccn3)n2)cc1 [N-[4-[[4-(2-Pyridinyl)-2-pyrimidinyl]amino]-phenyl]acetamide]
31 | 6.70 | CC(=O)Nc1ccc(Nc2nccc(-c3cccs3)n2)cc1 [N-[4-[[4-(2-Thienyl)-2-pyrimidinyl]amino]-phenyl]acetamide]
32 | 5.44 | CC(=O)Nc1ccc(Nc2nccc(-c3cccnc3)n2)cc1 [N-[4-[[4-(3-Pyridinyl)-2-pyrimidin-yl]amino]phenyl]acetamide]
33 | 5.28 | CC(=O)Nc1ccc(Nc2nccc(-c3ccncc3)n2)cc1 [N-[4-[[4-(4-Pyridinyl)-2-pyrimidinyl]amino]-phenyl]acetamide]
34 | 6.52 | CC(=O)Nc1ccc(Nc2nccc(-c3ccc(C)s3)n2)cc1 [N-[4-[[4-(5-Methyl-2-thienyl)-2-pyrimidinyl]amino]phenyl]acetamide]
35 | 4.40 | Cc1ccc(CNc2nccc(-c3ccccn3)n2)cc1C [N-[(3,4-Dimethylphenyl)methyl]-4-(2-pyridinyl)-2-pyrimidinamine]
36 | 5.68 | CCOC(=O)C(=O)N(c1ccccc1)c1nccc(-c2ccncc2)n1 [Oxo[phenyl[4-(4-pyridinyl)-2-pyrimidinyl]amino]acetic acid, ethyl ester]
37 | 5.24 | CCOC(=O)COc1ccc(Nc2nccc(-c3ccncc3)n2)cc1 [[4-[[4-Pyridinyl)-2-pyrimidinyl]amino]phenoxy]acetic acid, ethyl ester]
38 | 5.35 | CC(O)c1ccc(Nc2nccc(-c3cccnc3)n2)cc1 (stereo not drawn) [α-Methyl-4-[[4-(3-pyridinyl)-2-pyrimidinyl]amino]benzenemethanol]

same assay, conditions: concentration causing 50% inhibition of histamine release, by linear regression; active if IC50 ≦ 48 µM; read-out: IC50

Row | pIC50 | SMILES
39 | 5.62 | Nc1ccc(Nc2nccc(-c3ccncc3)n2)cc1 [N-[4-(4-Pyridinyl)-2-pyrimidinyl)-1,4-benzenediamine]
40 | 5.57 | CN(C)c1ccc(Nc2nccc(-c3ccccn3)n2)cc1 [N-[4-(Dimethylamino)phenyl]-4-(2-pyridinyl)-2-pyrimidinamine]
41 | 5.42 | CN(C)c1ccc(Nc2nccc(-c3ccncc3)n2)cc1 [N-[4-(Dimethylamino)phenyl]-4-(4-pyridinyl)-2-pyrimidinamine]
